In patent publication US11213530B2, “Gallium in the treatment of coronavirus disease” (priority 2020, dated 2022):

Test system: SARS-CoV-2 (WIV04)
Format: cell-based
Conditions: Vero-E6 cells

`Cc1occc(=O)c1[O-].Cc1occc(=O)c1[O-].Cc1occc(=O)c1[O-].[Ga+3]` [gallium maltolate] was tested, and the “in vitro antiviral activity” value (MOI 0.005, 0.1 μM to 100 μM, 24 hours, FIG. 1) was “pronounced, dose-dependent in vitro antiviral activity” and the EC50 (MOI 0.005, viral RNA in culture media by qRT-PCR at 24 hours after treatment, read-out: concentration that inhibited viral replication by 50% (EC50)) was about 14 µM.
